Laboratory results published in ChEMBL document CHEMBL3507680, “University of Dundee, Gates Library screen for HepG2 cell viability”.

experiment: Human HepG2 cell viability assay in 384 well format; assay type: toxicity, cell-based; design: dose 125 nL, time 70.5 hour; concentration not given beside the values; conditions: HepG2 cells, read-out: Inhibition

SMILES | cytotoxicity at 70.5 h [%]
CCC1=NN2C(=N)/C(=C\c3cccn3-c3ccc(Cl)cc3)C(=O)N=C2S1 | 9.55
Cc1nn(C(=O)c2cccnc2)c(C)c1C | 27.4
CC(C)NC(=O)C[C@@H]1CCNC[C@@H]1Cc1cc(-c2ccccc2)on1 | -1.73
CCNC(=O)N1CC[C@H]2CC(=O)N(C3CCCCC3)CC[C@H]2C1 | -5.33
Cn1nc(-c2cccs2)cc1[C@H]1CN2CC[C@H]1C[C@@H]2CN | -6.9
O[C@@H]1C[C@@H](c2nc(-c3ccc(F)cc3)no2)N(C2CCOCC2)C1 | -3.33
CC(C)(C)c1cc(C[C@H]2CNCC[C@H]2CC(=O)NCc2cccs2)no1 | -6.24
Cc1noc([C@@H]2C[C@H](NC(=O)NC3CCCCC3)CN2C)n1 | -7.54
Cc1noc([C@@H]2C[C@H](NC(=O)Nc3cccc(F)c3)CN2C)n1 | 6.23
Cc1ccc(N2C(=O)N[C@@H]3CCN(C(=O)C4CC4)[C@@H]3C2=O)cc1 | -15.3
O=C1N[C@@H]2CCN(C(=O)c3ccccc3)[C@@H]2C(=O)N1c1ccc(F)cc1 | -12.9
COC(=O)[C@@H]1CN(C(=O)Nc2ccccc2)CCN1C(C)=O | -7
COc1ccccc1-c1nnc([C@H]2CCN(C(=O)C3CC3)C2)o1 | 11.5
FC(F)(F)c1ccc(-c2c[nH]c([C@@H]3COCCN3)n2)cc1 | -16
COCC(=O)N1CCN2C(=O)OC[C@H]2C1 | 3.16
O=C1CO[C@H]2CN(Cc3ccc(F)c(F)c3)C[C@H]2N1 | -12.7
O=C1CO[C@H]2CN(Cc3ccc4c(c3)OCO4)C[C@H]2N1 | -7.08
c1ccc2c(Cc3nnc([C@H]4CCNC4)o3)c[nH]c2c1 | -2.38
Fc1ccc(-c2noc([C@@H]3Cc4nc[nH]c4CN3)n2)cc1 | -11.7
Cc1ccc(-c2noc([C@@H]3Cc4nc[nH]c4CN3)n2)cc1 | -11.9
CCNC(=O)NC[C@H]1COCc2nc3cc(C)ccc3n21 | -3.17
CCNC(=O)N1C[C@@H]2OCC(=O)N(C(C)C)[C@@H]2C1 | -0.389
COc1ccc(-c2cc(C[C@@H]3C[C@H](N(C)C)C3(C)C)no2)cc1 | 5.02
Cc1nn(CCC#N)c(C)c1[C@@H]1C=C[C@@H](NCc2ccc(F)cc2)C1 | -0.333
Cc1ccc(S(=O)(=O)Cc2noc([C@@H]3C[C@@H](O)CN3C(C)C)n2)cc1 | -8.79
CC1=C[C@@H](CC#N)[C@H](C(C)C)C[C@H]1CC(=O)N1CCN(CCO)CC1 | -8.18
COCC(=O)Nc1ccc(-c2noc([C@@H]3CCCN3C(C)C)n2)cn1 | -2.85

SMILES | cytotoxicity at 70.5 h [%]
COCc1cc(C[C@@H]2CC[C@H](O)[C@@H](CNCC(C)C)O2)no1 | -0.483
O=C(Nc1ccccc1)[C@H]1O[C@H](CCN2CCCCC2)CC[C@@H]1O | -3.54
O=C1N(Cc2ccccn2)C[C@H]2CN(C3CCOCC3)CCN12 | -3.19
CC(C)(O)c1cc(CC2(NCC3CCCCC3)COC2)no1 | -16.3
CS(=O)(=O)NC[C@H]1OC[C@@H](NC2CCC(F)(F)CC2)[C@@H]1O | -5.87
O=C(NC[C@H]1OC[C@@H](NCc2ccccc2F)[C@@H]1O)Nc1ccccc1 | -3.35
CN(C)C[C@H]1O[C@H](Cc2cc(-c3ccccn3)on2)CC[C@@H]1O | -4.76
COc1cccc(CN2CCN3C(=O)NC[C@H]3C2)n1 | -7.27
Cc1ccc(CN2C[C@H](O)C[C@H]2c2nc(-c3ccc(F)cc3)no2)cc1 | -7.37
c1cnc2c(c1)nc1n2[C@@H](CNC2CCOCC2)COC1 | -4.98
CC(C)NC(=O)NC[C@H]1OC[C@@H](NCc2ccccc2F)[C@@H]1O | -4.73
Cc1cc2nc(CO[C@H]3CN(C4CCC4)C[C@H]3F)[nH]c2cc1C | -2.01
c1cn2c(n1)CO[C@@H](CNCc1ccc3c(c1)OCO3)C2 | -4.1
CC(C)N[C@@H]1CO[C@H](CNC(=O)Nc2ccccc2)[C@H]1O | -2.59
CC(=O)N1C[C@@H](F)[C@@H](OCc2nc3ccccc3o2)C1 | -3.68
COCCN1C[C@H]2CN(C(=O)c3ccc4c(c3)OCO4)CCN2C1=O | -3.46
COc1cc(OC)c2c(=O)oc(CC(O)CC(C)=O)cc2c1 (centres undefined) | 9.76
CCc1noc(-c2cccc(OCC(=O)NC(C)C)c2)n1 | -7.23
COCCNc1c(-c2ccc(C)cc2)c(=O)c1=O | -9.49
COCCCNc1c(-c2ccc(C)cc2)c(=O)c1=O | -6.65
CN(C)CCNc1c(-c2ccccc2)c(=O)c1=O | -1.53
COc1ccc(OC)c(NC(=O)c2c(C)cn(C)c2CC(=O)O)c1 | -5.28
CN1CCN(c2ccc(NS(=O)(=O)c3ccc(Br)s3)cc2C(=O)O)CC1 | 24
O=C(CCn1nc(C(=O)Nc2ccccc2)ccc1=O)Nc1nccs1 | 1.25
Cc1ccc2nc(CSCC(=O)Nc3nnc(C(C)C)s3)cc(=O)n2c1 | -6.09
Cc1ccc(-n2nc(C)c3c(C)cc(OCC(=O)NC(C)C)nc32)cc1 | -1.77
Cc1ccn(CCC(=O)NCc2ccc(C)o2)n1 | -1.65
